According to ChEMBL document CHEMBL5126595, “Identification and anti-tumor evaluation of 3-acyl-indol-based 2,4-diarylaminopyrimidine analogues as potent ALK inhibitors capable of overcoming drug-resistant mutants” (Eur J Med Chem, 2022):
The source made the active and inactive calls. The calls are words filed in the database; no cut-off is given here.

Experiments:
NCI-H2228 [1] = experiment: Induction of apoptosis in human NCI-H2228 cells assessed as ruptured nuclei at 25 to 100 nM incubated for 48 hrs by Hoechst 33342 staining based fluorescence microscopic analysis; type: functional, cell-based; details: dose 25-100 nM
NCI-H2228 [2] = experiment: Induction of apoptosis in human NCI-H2228 cells assessed as early apoptotic cells at 25 nM incubated for 48 hrs by AnnexinV-FITC/propidium iodide staining based flow cytometry analysis (reference value: 2.45 %); type: functional
NCI-H2228 [3] = experiment: Induction of cell cycle arrest in human NCI-H2228 cells assessed as increase in G1 phase cells at 50 nM incubated for 48 hrs by PI/RNase staining based flow cytometry analysis (reference value: 49.72 %); type: functional
[4] = AUC (0 to infinity) in Sprague-Dawley rat at 10 mg/kg, po by LC-MS/MS analysis; type: ADME, organism-based; parameters: time infinity, dose 10 mg/kg, route po; details: in vivo
NCI-H2228 [5] = experiment: Induction of cell cycle arrest in human NCI-H2228 cells assessed as decrease in G2 phase cells at 100 nM incubated for 48 hrs by PI/RNase staining based flow cytometry analysis (reference value: 15.38 %); type: functional; parameters: scale not given: the % may be the effect or the level left
NCI-H2228 [6] = experiment: Induction of apoptosis in human NCI-H2228 cells assessed as total apoptotic cells at 50 nM incubated for 48 hrs by AnnexinV-FITC/propidium iodide staining based flow cytometry analysis; type: functional
NCI-H2228 [7] = experiment: Induction of cell cycle arrest in human NCI-H2228 cells assessed as increase in G1 phase cells at 25 nM incubated for 48 hrs by PI/RNase staining based flow cytometry analysis (reference value: 49.72 %); type: functional
[8] = Potency index, ratio of test compound IC50 to ceritinib IC50 antiproliferative activity […] EML4-ALK-G1202R cells assessed as inhibition of cell growth incubated for 72 hrs by MTT assay; type: functional
NCI-H2228 [9] = experiment: Induction of cell cycle arrest in human NCI-H2228 cells assessed as decrease in G2 phase cells at 25 nM incubated for 48 hrs by PI/RNase staining based flow cytometry analysis (reference value: 15.38 %); type: functional; parameters: scale not given: the % may be the effect or the level left
[10] = Cmax in Sprague-Dawley rat at 10 mg/kg, po by LC-MS/MS analysis; type: ADME, organism-based; parameters: dose 10 mg/kg, route po; details: in vivo
NCI-H1581 = experiment: Antiproliferative activity against human NC-H1581 cells assessed as inhibition of cell growth incubated for 72 hrs by MTT assay; type: functional, cell-based; details: NCI-H1581, 72 h
[11] = Antiproliferative activity against human HELF cells assessed as inhibition of cell growth incubated for 72 hrs by MTT assay; type: toxicity, cell-based
NCI-H2228 [12] = experiment: Inhibition of colony formation in human NCI-H2228 cells assessed as reduction in colony area at 50 nM incubated for 3 day by crystal violet staining based assay; type: functional; details: NCI-H2228, 72 h
NCI-H3122 = experiment: Antiproliferative activity against EML4-ALK positive human NC-H3122 cells assessed as inhibition of cell growth incubated for 72 hrs by MTT assay; type: functional, cell-based; details: NCI-H3122, 72 h
[13] = molecular target: T1, ALK tyrosine kinase receptor (Homo sapiens, UniProt Q9UM73); experiment: Inhibition of N-terminal GST-tagged human wild type ALK (1058 to 1620 residues) cytoplasmic domain expressed in baculovirus infected Sf21 cells incubated for 1 hrs in the presence of ATP by mobility shift assay
Target sequence in this assay (Q9UM73 whole entry, the tested form may be a part): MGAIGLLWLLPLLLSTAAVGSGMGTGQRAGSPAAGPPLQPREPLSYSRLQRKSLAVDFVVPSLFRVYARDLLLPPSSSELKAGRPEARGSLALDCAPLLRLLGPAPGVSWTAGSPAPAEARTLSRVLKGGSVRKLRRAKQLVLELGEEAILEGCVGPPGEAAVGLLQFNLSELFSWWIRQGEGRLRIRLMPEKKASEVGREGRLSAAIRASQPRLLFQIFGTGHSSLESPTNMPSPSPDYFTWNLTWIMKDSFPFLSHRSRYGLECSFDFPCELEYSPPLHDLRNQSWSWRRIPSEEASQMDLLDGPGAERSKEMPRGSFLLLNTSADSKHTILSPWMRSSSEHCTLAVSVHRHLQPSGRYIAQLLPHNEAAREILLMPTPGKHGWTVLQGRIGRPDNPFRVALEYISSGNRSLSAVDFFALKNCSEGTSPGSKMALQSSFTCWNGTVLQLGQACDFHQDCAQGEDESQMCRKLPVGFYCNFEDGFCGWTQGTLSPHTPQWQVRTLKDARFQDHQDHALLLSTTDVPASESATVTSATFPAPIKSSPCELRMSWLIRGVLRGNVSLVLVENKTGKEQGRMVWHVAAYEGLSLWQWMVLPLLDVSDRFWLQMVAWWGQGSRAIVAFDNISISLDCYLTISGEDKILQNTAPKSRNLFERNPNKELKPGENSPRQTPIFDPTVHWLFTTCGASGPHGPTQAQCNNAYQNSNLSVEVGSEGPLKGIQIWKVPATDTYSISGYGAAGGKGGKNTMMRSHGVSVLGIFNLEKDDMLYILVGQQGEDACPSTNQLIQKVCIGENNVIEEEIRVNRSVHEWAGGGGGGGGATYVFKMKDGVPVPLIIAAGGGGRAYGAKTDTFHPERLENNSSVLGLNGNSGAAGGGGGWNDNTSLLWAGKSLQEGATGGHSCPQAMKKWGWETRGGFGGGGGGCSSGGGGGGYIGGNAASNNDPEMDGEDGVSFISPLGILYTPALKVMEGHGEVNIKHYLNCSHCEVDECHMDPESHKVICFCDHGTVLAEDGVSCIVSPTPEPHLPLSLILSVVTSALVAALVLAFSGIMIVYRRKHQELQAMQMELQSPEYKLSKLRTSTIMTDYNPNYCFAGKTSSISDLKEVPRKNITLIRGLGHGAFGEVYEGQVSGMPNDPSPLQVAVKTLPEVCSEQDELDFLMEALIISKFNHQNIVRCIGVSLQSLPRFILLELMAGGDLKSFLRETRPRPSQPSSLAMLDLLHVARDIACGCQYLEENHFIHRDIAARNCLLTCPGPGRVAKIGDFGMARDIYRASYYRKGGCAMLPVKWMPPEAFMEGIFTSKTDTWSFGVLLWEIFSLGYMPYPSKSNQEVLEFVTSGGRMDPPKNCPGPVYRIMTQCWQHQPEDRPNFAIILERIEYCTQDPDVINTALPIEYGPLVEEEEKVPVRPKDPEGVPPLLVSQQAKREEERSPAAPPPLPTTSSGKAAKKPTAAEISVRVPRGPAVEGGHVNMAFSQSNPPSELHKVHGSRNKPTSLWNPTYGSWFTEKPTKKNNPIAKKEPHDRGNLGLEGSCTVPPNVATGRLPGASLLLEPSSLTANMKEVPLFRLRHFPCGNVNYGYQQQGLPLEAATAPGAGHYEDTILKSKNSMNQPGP

NCI-H2228 [14] = experiment: Induction of apoptosis in human NCI-H2228 cells assessed as early apoptotic cells at 50 nM incubated for 48 hrs by AnnexinV-FITC/propidium iodide staining based flow cytometry analysis (reference value: 2.45 %); type: functional
[15] = molecular target: T1, ALK tyrosine kinase receptor; experiment: Inhibition of ALK downstream signalling in human NCI-H2228 cells assessed as reduction in AKT level measured after 24 hrs by Western blot analysis; type: cell-based; details: dose 25-100 nM, DDE = dose-dependent effect
Target sequence in this assay (Q9UM73 19-1620 limits assumed): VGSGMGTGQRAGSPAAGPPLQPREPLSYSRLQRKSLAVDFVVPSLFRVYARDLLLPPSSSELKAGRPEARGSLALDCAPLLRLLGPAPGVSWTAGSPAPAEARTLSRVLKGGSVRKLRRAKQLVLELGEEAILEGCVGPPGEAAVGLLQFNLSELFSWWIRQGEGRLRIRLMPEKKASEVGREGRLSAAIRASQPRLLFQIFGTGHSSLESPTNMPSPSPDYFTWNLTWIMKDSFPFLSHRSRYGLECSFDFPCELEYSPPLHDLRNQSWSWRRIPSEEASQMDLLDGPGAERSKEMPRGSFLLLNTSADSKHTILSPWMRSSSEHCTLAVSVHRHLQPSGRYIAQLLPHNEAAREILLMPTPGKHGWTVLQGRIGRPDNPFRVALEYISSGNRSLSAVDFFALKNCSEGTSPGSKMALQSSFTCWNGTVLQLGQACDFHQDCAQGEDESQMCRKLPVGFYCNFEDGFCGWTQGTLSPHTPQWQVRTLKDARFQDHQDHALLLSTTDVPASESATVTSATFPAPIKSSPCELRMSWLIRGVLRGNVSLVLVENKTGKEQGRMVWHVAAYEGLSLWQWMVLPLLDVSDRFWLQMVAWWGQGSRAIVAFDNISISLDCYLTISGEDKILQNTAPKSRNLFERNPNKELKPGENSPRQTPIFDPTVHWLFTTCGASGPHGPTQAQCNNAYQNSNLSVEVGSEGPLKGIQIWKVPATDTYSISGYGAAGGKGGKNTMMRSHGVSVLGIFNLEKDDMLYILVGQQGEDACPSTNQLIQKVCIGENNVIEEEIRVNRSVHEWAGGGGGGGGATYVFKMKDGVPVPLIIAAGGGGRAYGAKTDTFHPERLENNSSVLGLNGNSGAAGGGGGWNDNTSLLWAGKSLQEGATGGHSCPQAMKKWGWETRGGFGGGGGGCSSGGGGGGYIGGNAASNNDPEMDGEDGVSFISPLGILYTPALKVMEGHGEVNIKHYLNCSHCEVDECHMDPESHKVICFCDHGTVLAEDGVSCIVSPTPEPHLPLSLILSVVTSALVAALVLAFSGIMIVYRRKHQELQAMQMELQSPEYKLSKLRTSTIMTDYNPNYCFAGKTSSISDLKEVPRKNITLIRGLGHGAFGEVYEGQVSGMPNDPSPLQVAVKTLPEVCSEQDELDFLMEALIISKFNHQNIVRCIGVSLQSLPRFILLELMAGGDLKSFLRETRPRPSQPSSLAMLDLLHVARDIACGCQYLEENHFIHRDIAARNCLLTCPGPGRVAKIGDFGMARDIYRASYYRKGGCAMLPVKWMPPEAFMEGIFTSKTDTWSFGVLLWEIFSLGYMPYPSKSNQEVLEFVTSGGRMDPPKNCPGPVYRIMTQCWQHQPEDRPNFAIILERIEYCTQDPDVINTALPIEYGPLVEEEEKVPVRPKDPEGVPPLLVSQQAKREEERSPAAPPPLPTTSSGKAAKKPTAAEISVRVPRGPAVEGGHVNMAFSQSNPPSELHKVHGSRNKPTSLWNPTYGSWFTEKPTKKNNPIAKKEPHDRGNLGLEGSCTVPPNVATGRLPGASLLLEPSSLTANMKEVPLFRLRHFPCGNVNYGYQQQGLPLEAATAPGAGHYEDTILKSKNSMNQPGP

NCI-H2228 [16] = experiment: Antiproliferative activity against EML4-ALK positive human NCI-H2228 cells assessed as inhibition of cell growth incubated for 72 hrs by MTT assay; type: functional, cell-based; details: NCI-H2228, 72 h
[17] = molecular target: T1, ALK tyrosine kinase receptor; experiment: Inhibition of ALK phosphorylation in human NCI-H2228 cells measured after 24 hrs by Western blot analysis; type: cell-based; details: dose 25-100 nM, DDE = dose-dependent effect
Target sequence in this assay (Q9UM73 19-1620 limits assumed): as above

MCF7 = experiment: cells; details: Homo sapiens, MCF7, 72 h
Description: Antiproliferative activity against human MCF7 cells assessed as inhibition of cell growth incubated for 72 hrs by MTT assay

NCI-H2228 [18] = experiment: Inhibition of cell migration in human NCI-H2228 cells at 10 nM measured at 24 hrs by inverted microscopic based cell scratch assay relative to control; type: functional
NCI-H2228 [19] = experiment: Induction of apoptosis in human NCI-H2228 cells assessed as orange red fluorescence at 25 to 100 nM incubated for 48 hrs by AO/EB staining based fluorescence microscopic analysis; type: functional, cell-based; details: dose 25-100 nM
NCI-H2228 [20] = experiment: Induction of apoptosis in human NCI-H2228 cells assessed as necrotic cells at 100 nM incubated for 48 hrs by AnnexinV-FITC/propidium iodide staining based flow cytometry analysis (reference value: 0.55 %); type: functional
[21] = molecular target: T1, ALK tyrosine kinase receptor; experiment: Inhibition of ALK downstream signalling in human NCI-H2228 cells assessed as reduction in phosphorylated ERK level measured after 24 hrs by Western blot analysis; type: cell-based; details: dose 25-100 nM, DDE = dose-dependent effect
Target sequence in this assay (Q9UM73 19-1620 limits assumed): as above

Hep 3B2 = experiment: cells; details: Homo sapiens, Hep3B, 72 h
Description: Antiproliferative activity against human Hep3B cells assessed as inhibition of cell growth incubated for 72 hrs by MTT assay

NCI-H2228 [22] = experiment: Antitumor activity against human NCI-H2228 cells xenografted in BALB/c nude mouse assessed as tumor regression at 25 mg/kg, IG administered every 2 days for 4 times; type: functional, organism-based; details: time 8.0 day
NCI-H2228 [23] = experiment: Induction of cell cycle arrest in human NCI-H2228 cells assessed as decrease in S phase cells at 25 nM incubated for 48 hrs by PI/RNase staining based flow cytometry analysis (reference value: 34.90 %); type: functional; parameters: scale not given: the % may be the effect or the level left
HT-29 = experiment: cells; details: Homo sapiens, HT-29, 72 h
Description: Antiproliferative activity against human HT-29 cells assessed as inhibition of cell growth incubated for 72 hrs by MTT assay

[24] = AUC (0 to infinity) in Sprague-Dawley rat at 2 mg/kg, iv by LC-MS/MS analysis; type: ADME, organism-based; parameters: time infinity, dose 2 mg/kg, route iv; details: in vivo
NCI-H2228 [25] = experiment: Induction of apoptosis in human NCI-H2228 cells assessed as viable cells at 50 nM incubated for 48 hrs by AnnexinV-FITC/propidium iodide staining based flow cytometry analysis (reference value: 92.3 %); type: functional; details: read-out: Activity
NCI-H2228 [26] = experiment: Inhibition of colony formation in human NCI-H2228 cells assessed as reduction in colony area incubated for 3 day by crystal violet staining based assay; type: functional, cell-based; details: dose 25-100 nM, DDE = dose-dependent effect
NCI-H2228 [27] = experiment: Inhibition of colony formation in human NCI-H2228 cells assessed as reduction in colony area at 100 nM incubated for 3 day by crystal violet staining based assay; type: functional; details: NCI-H2228, 72 h
MDA-MB-231 = experiment: cells; details: Homo sapiens, MDA-MB-231, 72 h
[28] = Antiproliferative activity […] EML4-ALK-L1196M cells assessed as inhibition of cell growth incubated for 72 hrs by MTT assay; type: functional, cell-based
[29] = Antiproliferative activity against human HEK293T cells assessed as inhibition of cell growth incubated for 72 hrs by MTT assay; type: toxicity, cell-based, HEK-293T
NCI-H2228 [30] = experiment: Induction of apoptosis in human NCI-H2228 cells assessed as late apoptotic cells at 25 nM incubated for 48 hrs by AnnexinV-FITC/propidium iodide staining based flow cytometry analysis (reference value: 4.72 %); type: functional

CNC(=O)c1ccccc1Nc1nc(Nc2ccc3c(C(=O)N(C)C)c(C)[nH]c3c2)ncc1Cl
Activity (NCI-H2228 [1]): Active | Activity (NCI-H2228 [2]): 3.73% | Activity (NCI-H2228 [3]): 54.44% | AUC(0-inf) [4]: 1760 ng·h/mL | Activity (NCI-H2228 [5]): 12.18% | Activity (NCI-H2228 [6]): 23.94% | Activity (NCI-H2228 [7]): 53.03% | Ratio IC50 [8]: 61 | Activity (NCI-H2228 [9]): 12.23% | Cmax [10]: 346 ng/mL | IC50 (NCI-H1581): 957 nM | IC50 at 72 h [11]: > 10000 nM | inhibition at 0.05 µM (NCI-H2228 [12]): 50% | IC50 (NCI-H3122): 27 nM | IC50 [13]: 2.3 nM | Activity (NCI-H2228 [14]): 7.44% | inhibition [15]: Dde | IC50 (NCI-H2228 [16]): 37 nM | inhibition [17]: Dde | IC50 (MCF7): 2160 nM | inhibition at 0.01 µM (NCI-H2228 [18]): 3.6% | Activity (NCI-H2228 [19]): Active | Activity (NCI-H2228 [20]): 1.71% | inhibition [21]: Dde | IC50 (Hep 3B2): 59 nM | Activity (NCI-H2228 [22]): Active | Activity (NCI-H2228 [23]): 34.73% | IC50 (HT-29): 2010 nM | AUC(0-inf) [24]: 922 ng·h/mL | viability at 0.05 µM (NCI-H2228 [25]): 74.4% | inhibition (NCI-H2228 [26]): Dde | inhibition at 0.1 µM (NCI-H2228 [27]): 100% | IC50 (MDA-MB-231): 1880 nM | IC50 [28]: 21 nM | IC50 at 72 h [29]: > 10000 nM | Activity (NCI-H2228 [30]): 10.5%
